The experiment concerns the target T1, human orexin type 2 receptor (hOX2R) (Homo sapiens, UniProt O43614).
T1 construct: expressed in transfected cells
T1 sequence (O43614 1-444): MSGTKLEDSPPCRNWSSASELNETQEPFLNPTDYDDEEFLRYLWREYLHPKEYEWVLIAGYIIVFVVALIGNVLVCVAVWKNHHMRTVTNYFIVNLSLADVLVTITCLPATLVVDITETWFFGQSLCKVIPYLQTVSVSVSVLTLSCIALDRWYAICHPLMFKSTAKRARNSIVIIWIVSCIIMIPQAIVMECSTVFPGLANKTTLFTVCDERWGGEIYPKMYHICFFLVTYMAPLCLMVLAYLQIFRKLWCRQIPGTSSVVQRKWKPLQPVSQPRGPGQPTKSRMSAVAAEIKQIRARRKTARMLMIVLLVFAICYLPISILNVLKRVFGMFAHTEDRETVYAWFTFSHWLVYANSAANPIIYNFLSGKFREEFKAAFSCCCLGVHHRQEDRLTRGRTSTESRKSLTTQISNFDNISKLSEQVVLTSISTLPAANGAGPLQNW
The experiment in a line: Measurement of orexin type 2 receptor agonist activity (FLIPR calcium fluorescence). The class given is cell-based. The following applies: for EC50: read-out: hOx2 pEC50 (converted); for Emax: CHO, read-out: hOx2 Emax (%). An outline of the steps:
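Agonism was read as fluorescence in cells stably expressing human OX2R. E. is the response at 10 μM relative to orexin A as full agonist (100%).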

[1] abbreviates: CHO cells expressing hOX2R, FLIPR calcium fluorescence.

From US12503475B2 (Centessa Pharmaceuticals (UK) Limited, priority 2020, dated 2025) come the findings set out here.

Where two headings read alike, the source gives them in different places.

The term Emax denotes the greatest response seen or fitted, relative to the assay's reference. As for `O=C([C@H]1CCO1)N1CC2(CC2)[C@H](NS(=O)(=O)CF)[C@@H]1Cc1cc(F)cc(-c2cccc(F)c2F)c1F` [Compound 217, 1-fluoro-N-((6S,7S)-5-((R)-oxetane-2-carbonyl)-6-((2,2′,3′,5-tetrafluoro-[1,1′-biphenyl]-3-yl)methyl)-5-azaspiro[2.4]heptan-7-yl)methanesulfonamide], under setting [1], the EC50 was 1 to 10 nM and the maximal effect (Emax) is 90 to 100%.

With `O=C([C@H]1CCO1)N1CC2(CC2)[C@H](NS(=O)(=O)CF)[C@@H]1Cc1cc(F)cc(-c2cc(F)ccc2F)c1F` [Compound 218, 1-fluoro-N-((6S,7S)-5-((R)-oxetane-2-carbonyl)-6-((2,2′,5,5′-tetrafluoro-[1,1′-biphenyl]-3-yl)methyl)-5-azaspiro[2.4]heptan-7-yl)methanesulfonamide], under setting [1], the EC50 is 1 to 10 nM and the Emax lay within 90 to 100%.

As for `C[C@@H](NC(=O)N1CC2(CC2)[C@H](NS(=O)(=O)CF)[C@@H]1Cc1cccc(-c2ccccc2)c1F)C(F)F` [Compound 219, (6S,7S)-N-((R)-1,1-difluoropropan-2-yl)-6-((2-fluoro-[1,1′-biphenyl]-3-yl)methyl)-7-((fluoromethyl)sulfonamido)-5-azaspiro[2.4]heptane-5-carboxamide], under setting [1], the EC50 is 1 to 10 nM and the Emax lay within 90 to 100%.

Consider `O=C([C@H]1CCO1)N1CC2(CC2)[C@H](NS(=O)(=O)C(F)F)[C@@H]1Cc1cc(F)cc(-c2cc(F)cc(F)c2)c1F` [Compound 220, 1,1-difluoro-N-((6S,7S)-5-((R)-oxetane-2-carbonyl)-6-((2,3′,5,5′-tetrafluoro-[1,1′-biphenyl]-3-yl)methyl)-5-azaspiro[2.4]heptan-7-yl)methanesulfonamide], for which, under setting [1], the EC50 was 1 to 10 nM and the Emax lay in the range of 90 to 100%.

Turning to `O=C([C@H](O)CF)N1CC2(CC2)[C@H](NS(=O)(=O)C(F)F)[C@@H]1Cc1cc(F)cc(-c2cc(F)cc(F)c2)c1F` [Compound 221, 1,1-difluoro-N-((6S,7S)-5-((S)-3-fluoro-2-hydroxypropanoyl)-6-((2,3′,5,5′-tetrafluoro-[1,1′-biphenyl]-3-yl)methyl)-5-azaspiro[2.4]heptan-7-yl)methanesulfonamide], the Emax was 90 to 100%. Besides, the EC50 under setting [1] was 1 to 10 nM.

Take `CC(C)S(=O)(=O)N[C@@H]1[C@H](Cc2cccc(-c3cc(F)cc(F)c3)c2F)N(C(=O)[C@H]2CCO2)CC12CC2` [Compound 222, N-((6S,7S)-5-((R)-oxetane-2-carbonyl)-6-((2,3′,5′-trifluoro-[1,1′-biphenyl]-3-yl)methyl)-5-azaspiro[2.4]heptan-7-yl)propane-2-sulfonamide]: under setting [1], the EC50 was 0.0794 to 1 nM and the Emax was in the range of 90 to 100%.

For `O=C([C@H]1CCO1)N1CC2(CC2)[C@H](NS(=O)(=O)C2CC2)[C@@H]1Cc1cccc(-c2cc(F)cc(F)c2)c1F` [Compound 223, N-((6S,7S)-5-((R)-oxetane-2-carbonyl)-6-((2,3′,5′-trifluoro-[1,1′-biphenyl]-3-yl)methyl)-5-azaspiro[2.4]heptan-7-yl)cyclopropanesulfonamide], under setting [1], the EC50 is 0.0794 to 1 nM and the Emax fell in the range of 90 to 100%.

For the compound `COC[C@H](F)C(=O)N1CC2(CC2)[C@H](NS(=O)(=O)CF)[C@@H]1Cc1cccc(-c2ccccc2)c1F` [Compound 224, 1-fluoro-N-((6S,7S)-5-((S)-2-fluoro-3-methoxypropanoyl)-6-((2-fluoro-[1,1′-biphenyl]-3-yl)methyl)-5-azaspiro[2.4]heptan-7-yl)methanesulfonamide], under setting [1], the EC50 is 1 to 10 nM and the maximal effect (Emax) is 90 to 100%.

For `N#C[C@]1(C(=O)N2CC3(CC3)[C@H](NS(=O)(=O)CF)[C@@H]2Cc2cccc(-c3ccccc3)c2F)CCO1` [Compound 226, N-((6S,7S)-5-((S)-2-cyanooxetane-2-carbonyl)-6-((2-fluoro-[1,1′-biphenyl]-3-yl)methyl)-5-azaspiro[2.4]heptan-7-yl)-1-fluoromethanesulfonamide], under setting [1], the EC50 is 1 to 10 nM and the Emax was in the range of 90 to 100%.

As to `O=C([C@H]1CCO1)N1CC2(CC2)[C@H](NS(=O)(=O)CF)[C@@H]1Cc1cc(F)cc(-c2cc(F)cc(F)c2)c1F` [Compound 227, 1-fluoro-N-((6S,7S)-5-((R)-oxetane-2-carbonyl)-6-((2,3′,5,5′-tetrafluoro-[1,1′-biphenyl]-3-yl)methyl)-5-azaspiro[2.4]heptan-7-yl)methanesulfonamide], under setting [1], the EC50 was 1 to 10 nM and the Emax lay within 90 to 100%.

Take `O=C(NCC1(F)CC1)N1CC2(CC2)[C@H](NS(=O)(=O)CF)[C@@H]1Cc1cc(F)cc(-c2ccccc2)c1F` [Compound 228, (6S,7S)-6-((2,5-difluoro-[1,1′-biphenyl]-3-yl)methyl)-N-((1-fluorocyclopropyl)methyl)-7-((fluoromethyl)sulfonamido)-5-azaspiro[2.4]heptane-5-carboxamide]: under setting [1], the EC50 is 1 to 10 nM and the Emax is 90 to 100%.

With `[2H]C([2H])([2H])c1cccc(-c2cccc(C[C@H]3[C@@H](NS(=O)(=O)CF)C4(CC4)CN3C(=O)[C@H]3CCO3)c2F)c1` [Compound 229, 1-fluoro-N-((6S,7S)-6-((2-fluoro-3′-(methyl-d3)-[1,1′-biphenyl]-3-yl)methyl)-5-((R)-oxetane-2-carbonyl)-5-azaspiro[2.4]heptan-7-yl)methanesulfonamide], under setting [1], the EC50 is 0.0794 to 1 nM and the Emax was in the range of 90 to 100%.

For the compound `CC(C)(O)C(=O)N1CC2(CC2)[C@H](NS(=O)(=O)C2CC2)[C@@H]1Cc1cccc(-c2cc(F)cc(F)c2)c1F` [Compound 230, N-((6S,7S)-5-(2-hydroxy-2-methylpropanoyl)-6-((2,3′,5′-trifluoro-[1,1′-biphenyl]-3-yl)methyl)-5-azaspiro[2.4]heptan-7-yl)cyclopropanesulfonamide], under setting [1], the EC50 was 1 to 10 nM and the Emax is 90 to 100%.

On to `N#CC1(C(=O)N2CC3(CC3)[C@H](NS(=O)(=O)CF)[C@@H]2Cc2cccc(-c3cc(F)cc(F)c3)c2F)CCC1` [Compound 231, N-((6S,7S)-5-(1-cyanocyclobutane-1-carbonyl)-6-((2,3′,5′-trifluoro-[1,1′-biphenyl]-3-yl)methyl)-5-azaspiro[2.4]heptan-7-yl)-1-fluoromethanesulfonamide], for which, under setting [1], the EC50 was 1 to 10 nM and the Emax was in the range of 90 to 100%.

Turning to `C[C@H](F)C(=O)N1CC2(CC2)[C@H](NS(=O)(=O)CF)[C@@H]1Cc1cccc(-c2cc(F)cc(F)c2)c1F` [Compound 232, 1-fluoro-N-((6S,7S)-5-((S)-2-fluoropropanoyl)-6-((2,3′,5′-trifluoro-[1,1′-biphenyl]-3-yl)methyl)-5-azaspiro[2.4]heptan-7-yl)methanesulfonamide], under setting [1], the EC50 was 0.0794 to 1 nM and the Emax is 90 to 100%.

On to `C[C@@H](F)C(=O)N1CC2(CC2)[C@H](NS(=O)(=O)CF)[C@@H]1Cc1cccc(-c2cc(F)cc(F)c2)c1F` [Compound 233, 1-fluoro-N-((6S,7S)-5-((R)-2-fluoropropanoyl)-6-((2,3′,5′-trifluoro-[1,1′-biphenyl]-3-yl)methyl)-5-azaspiro[2.4]heptan-7-yl)methanesulfonamide], for which, under setting [1], the EC50 is 10 to 100 nM and the Emax lay in the range of 80 to 90%.

For the compound `C[C@](O)(C(=O)N1CC2(CC2)[C@H](NS(=O)(=O)CF)[C@@H]1Cc1cccc(-c2ccccc2)c1F)C(F)F` [Compound 234, N-((6S,7S)-5-((S)-3,3-difluoro-2-hydroxy-2-methylpropanoyl)-6-((2-fluoro-[1,1′-biphenyl]-3-yl)methyl)-5-azaspiro[2.4]heptan-7-yl)-1-fluoromethanesulfonamide], the Emax was 90 to 100%. For the same compound, the EC50 under setting [1] is 1 to 10 nM.

For `O=C(NCC1(F)CC1)N1CC2(CC2)[C@H](NS(=O)(=O)C(F)F)[C@@H]1Cc1cccc(-c2cc(F)cc(F)c2)c1F` [Compound 235, (6S,7S)-7-((difluoromethyl)sulfonamido)-N-((1-fluorocyclopropyl)methyl)-6-((2,3′,5′-trifluoro-[1,1′-biphenyl]-3-yl)methyl)-5-azaspiro[2.4]heptane-5-carboxamide], under setting [1], the EC50 was 1 to 10 nM and the Emax lay in the range of 90 to 100%.

`CC(F)(F)C(=O)N1CC2(CC2)[C@H](NS(C)(=O)=O)[C@@H]1Cc1cccc(-c2cccc(F)c2)c1F` [Compound 294, N-((6S,7S)-6-((2,3'-difluoro-[1,1′-biphenyl]-3-yl)methyl)-5-(2,2-difluoropropanoyl)-5-azaspiro[2.4]heptan-7-yl)methanesulfonamide]: under setting [1], the EC50 was 10 to 100 nM and the Emax fell in the range of 80 to 90%.

As to `CS(=O)(=O)N[C@@H]1[C@H](Cc2cccc(-c3ccccc3)c2)N(C(=O)[C@H](O)C(F)(F)F)CC12CC2` [Compound 299, N-((6S,7S)-6-([1,1′-biphenyl]-3-ylmethyl)-5-((S)-3,3,3-trifluoro-2-hydroxypropanoyl)-5-azaspiro[2.4]heptan-7-yl)methanesulfonamide], under setting [1], the EC50 is 10 to 100 nM and the Emax was 90 to 100%.

For the compound `CS(=O)(=O)N[C@@H]1[C@H](Cc2cccc(-c3cccc(F)c3)c2)N(C(=O)[C@H]2CCO2)CC12CC2` [Compound 305], under setting [1], the EC50 was 10 to 100 nM and the Emax was in the range of 90 to 100%.
